Measured values published in ChEMBL document CHEMBL3872243, “Synthesis of new morpholine-connected pyrazolidine derivatives and their antimicrobial, antioxidant, and cytotoxic activities” (2017).
In brackets after ≈: the same amount, converted by molar mass.

Columns and labels:
Type in all cases: functional
[1] = Antioxidant activity assessed as ABTS radical scavenging activity at 100 ug/ml after 30 mins
[2] = Cytotoxicity against human MCF7 cells after 48 hrs by MTT assay; conditions: MCF7, 48 h
Aspergillus niger = experiment: Antifungal activity against Aspergillus niger after 24 hrs by two fold dilution method
Staphylococcus aureus = experiment: Antibacterial activity against Staphylococcus aureus after 24 hrs by two fold dilution method
[3] = Antifungal activity against Microsporum audouinii after 24 hrs by two fold dilution method
Escherichia coli = experiment: Antibacterial activity against Escherichia coli after 24 hrs by two fold dilution method
[4] = Cytotoxicity against human HeLa cells after 48 hrs by MTT assay
[5] = Antioxidant activity assessed as reduction in AAPH free radical-induced linoleic acid peroxidation activity measured at 100 ug/ml by UV spectroscopic analysis; set-up: scale not given: the % may be the effect or the level left
[6] = test system: Staphylococcus epidermidis; experiment: Antibacterial activity against Staphylococcus epidermidis after 24 hrs by two fold dilution method
[7] = Cytotoxicity against human HepG2 cells after 48 hrs by MTT assay; conditions: HepG2, 48 h
Klebsiella pneumoniae = experiment: Antibacterial activity against Klebsiella pneumoniae after 24 hrs by two fold dilution method
[8] = Antifungal activity against Cryptococcus neoformans after 24 hrs by two fold dilution method
Candida albicans = experiment: Antifungal activity against Candida albicans after 24 hrs by two fold dilution method
Pseudomonas aeruginosa = experiment: Antibacterial activity against Pseudomonas aeruginosa after 24 hrs by two fold dilution method

In the case of `O=[N+]([O-])c1ccc(N2C(O)CC(c3ccccc3)N2C(c2ccc(Cl)cc2)N2CCOCC2)c([N+](=O)[O-])c1` (stereo not given), the Activity [1] is reported as 41.9%, the GI50 [2] is reported as 46.1 µM and the LC50 [2] is reported as over 100 µM. For the same compound, the TGI [2] was 85.1 µM, the MIC (Aspergillus niger) was 64 µg/mL (≈ 119 µM) and the MIC (Staphylococcus aureus) was 64 µg/mL (≈ 119 µM). For the same compound, the MIC [3] was 64 µg/mL (≈ 119 µM), the MIC (Escherichia coli) was 0.5 µg/mL (≈ 0.926 µM) and the GI50 [4] was 51 µM. For the same compound, the LC50 [4] was over 100 µM, the TGI [4] was 89.2 µM and the Activity [5] was 32%. It also gave an MIC [6] of over 100 µg/mL, a GI50 [7] of 12.2 µM and an LC50 [7] of 42.8 µM. The TGI [7] was 23.1 µM, the MIC (Klebsiella pneumoniae) was 64 µg/mL (≈ 119 µM) and the MIC [8] was 64 µg/mL (≈ 119 µM). For the same compound, the MIC (Candida albicans) was 1 µg/mL (≈ 1.85 µM) and the MIC (Pseudomonas aeruginosa) was 64 µg/mL (≈ 119 µM).

`O=[N+]([O-])c1ccc(N2C(O)CC(c3ccccc3)N2C(c2ccccc2)N2CCOCC2)c([N+](=O)[O-])c1` (stereo not given) gave an Activity [1] of 34.6%, an LC50 [2] of over 100 µM and an MIC (Aspergillus niger) of over 100 µg/mL. For the same compound, the MIC (Escherichia coli) was 8 µg/mL (≈ 15.8 µM), the LC50 [4] was over 100 µM and the Activity [5] was 21.8%. It also gave a GI50 [7] of 43.2 µM, an LC50 [7] of over 100 µM and a TGI [7] of 78.3 µM. For the same compound, the MIC (Klebsiella pneumoniae) was over 100 µg/mL and the MIC (Candida albicans) was over 100 µg/mL.

For `CN(C)c1ccc(C(N2CCOCC2)N2C(c3ccccc3)CC(O)N2c2ccc([N+](=O)[O-])cc2[N+](=O)[O-])cc1` (stereo not given), the Activity [1] was 31%, the GI50 [2] was 13.9 µM and the LC50 [2] was over 100 µM. For the same compound, the TGI [2] was 28.9 µM, the MIC (Aspergillus niger) was over 100 µg/mL and the MIC (Staphylococcus aureus) was over 100 µg/mL. For the same compound, the MIC [3] was over 100 µg/mL, the MIC (Escherichia coli) was 8 µg/mL (≈ 14.6 µM) and the GI50 [4] was 29.2 µM. For the same compound, the LC50 [4] was over 100 µM, the TGI [4] was 57.9 µM and the Activity [5] was 29.6%. For the same compound, the MIC [6] was 2 µg/mL (≈ 3.65 µM), the GI50 [7] was 35.8 µM and the LC50 [7] was over 100 µM. For the same compound, the TGI [7] was 62.3 µM, the MIC (Klebsiella pneumoniae) was 64 µg/mL (≈ 117 µM) and the MIC [8] was over 100 µg/mL. The MIC (Candida albicans) was 2 µg/mL (≈ 3.65 µM) and the MIC (Pseudomonas aeruginosa) was 64 µg/mL (≈ 117 µM).

Compound `COc1ccc(C(N2CCOCC2)N2C(c3ccccc3)CC(O)N2c2ccc([N+](=O)[O-])cc2[N+](=O)[O-])cc1` (stereo not given) has an Activity [1] of 61.2%, an LC50 [2] of over 100 µM and an MIC (Aspergillus niger) of over 100 µg/mL. The MIC (Staphylococcus aureus) was 4 µg/mL (≈ 7.47 µM), the MIC [3] was 8 µg/mL (≈ 14.9 µM) and the MIC (Escherichia coli) was over 100 µg/mL. For the same compound, the GI50 [4] was 31.8 µM, the LC50 [4] was over 100 µM and the TGI [4] was 63.2 µM. For the same compound, the Activity [5] was 59.1%, the MIC [6] was 8 µg/mL (≈ 14.9 µM) and the LC50 [7] was over 100 µM. For the same compound, the MIC (Klebsiella pneumoniae) was over 100 µg/mL, the MIC [8] was over 100 µg/mL and the MIC (Candida albicans) was over 100 µg/mL. For the same compound, the MIC (Pseudomonas aeruginosa) was over 100 µg/mL.

Work on `O=[N+]([O-])c1ccc(N2C(O)CC(c3ccccc3)N2C(c2ccc3c(c2)OCO3)N2CCOCC2)c([N+](=O)[O-])c1` (stereo not given) yielded an Activity [1] of 34.5%, a GI50 [2] of 12.9 µM and an LC50 [2] of 87.2 µM. For the same compound, the TGI [2] was 45.3 µM, the MIC (Aspergillus niger) was 8 µg/mL (≈ 14.6 µM) and the MIC (Staphylococcus aureus) was over 100 µg/mL. For the same compound, the MIC [3] was 32 µg/mL (≈ 58.2 µM), the MIC (Escherichia coli) was over 100 µg/mL and the GI50 [4] was 52.9 µM. It also gave an LC50 [4] of over 100 µM, a TGI [4] of 81.3 µM and an Activity [5] of 29.8%. It also gave an MIC [6] of over 100 µg/mL, a GI50 [7] of 21.3 µM and an LC50 [7] of 62.1 µM. For the same compound, the TGI [7] was 41 µM, the MIC (Klebsiella pneumoniae) was 64 µg/mL (≈ 116 µM) and the MIC [8] was 64 µg/mL (≈ 116 µM). The MIC (Candida albicans) was 16 µg/mL (≈ 29.1 µM) and the MIC (Pseudomonas aeruginosa) was 2 µg/mL (≈ 3.64 µM).

For `Clc1ccccc1C(c1ccccc1)(c1ccccc1)n1ccnc1` [CLOTRIMAZOLE], the MIC (Aspergillus niger) was 2 µg/mL (≈ 5.8 µM), the MIC [3] was 0.5 µg/mL (≈ 1.45 µM) and the MIC [8] was 0.5 µg/mL (≈ 1.45 µM). It also gave an MIC (Candida albicans) of 1 µg/mL (≈ 2.9 µM).

`O=[N+]([O-])c1ccc(N2C(O)CC(c3ccccc3)N2C(c2c[nH]c3ccccc23)N2CCOCC2)c([N+](=O)[O-])c1` (stereo not given) showed an Activity [1] of 27.8%, a GI50 [2] of 24.4 µM and an LC50 [2] of 76.3 µM. For the same compound, the TGI [2] was 59.3 µM, the MIC (Aspergillus niger) was 16 µg/mL (≈ 29.4 µM) and the MIC (Staphylococcus aureus) was 1 µg/mL (≈ 1.84 µM). For the same compound, the MIC [3] was 8 µg/mL (≈ 14.7 µM), the MIC (Escherichia coli) was over 100 µg/mL and the GI50 [4] was 34.2 µM. The LC50 [4] was over 100 µM, the TGI [4] was 72.1 µM and the Activity [5] was 34.6%. It also gave an MIC [6] of over 100 µg/mL, a GI50 [7] of 15.9 µM and an LC50 [7] of 54.8 µM. For the same compound, the TGI [7] was 38.2 µM, the MIC (Klebsiella pneumoniae) was over 100 µg/mL and the MIC [8] was 64 µg/mL (≈ 118 µM). The MIC (Candida albicans) was 32 µg/mL (≈ 58.8 µM) and the MIC (Pseudomonas aeruginosa) was 8 µg/mL (≈ 14.7 µM).

For `O=C(O)c1cn(C2CC2)c2cc(N3CCNCC3)c(F)cc2c1=O` [CIPROFLOXACIN], the MIC (Staphylococcus aureus) was 0.5 µg/mL (≈ 1.51 µM), the MIC [6] was 4 µg/mL (≈ 12.1 µM) and the MIC (Klebsiella pneumoniae) was 2 µg/mL (≈ 6.04 µM). It also gave an MIC (Pseudomonas aeruginosa) of 1 µg/mL (≈ 3.02 µM).
